Assay results as given in ChEMBL document CHEMBL1201862, “PubChem BioAssay data set” (2004).
Active and inactive are the calls of the source.

Experiments:
[1] = HEp-2 cell cytotoxicity, dose response, cytotoxicity control for RSV inhibitor project, HTS (AID 2410); format: functional; settings: human respiratory syncytial virus
[2] = molecular target: Dual specificity protein phosphatase 3 (Homo sapiens, UniProt P51452); assay: SAR VHR1 Fluorescent Assay for In Vitro dose response studies Set 2. [Related pubchem assays (depositor defined):AID1654, AID1661, AID1878]; format: functional
[3] = molecular target: T1, Tyrosine-protein phosphatase non-receptor type 7 (Homo sapiens, UniProt P35236); assay: SAR analysis of chemical inhibitors of HePTP using a Fluorescent assay - Set 2. [Related pubchem assays (depositor defined):AID1059, AID1077, AID1661, AID2085, AID521]; format: functional
T1 sequence (P35236 whole entry): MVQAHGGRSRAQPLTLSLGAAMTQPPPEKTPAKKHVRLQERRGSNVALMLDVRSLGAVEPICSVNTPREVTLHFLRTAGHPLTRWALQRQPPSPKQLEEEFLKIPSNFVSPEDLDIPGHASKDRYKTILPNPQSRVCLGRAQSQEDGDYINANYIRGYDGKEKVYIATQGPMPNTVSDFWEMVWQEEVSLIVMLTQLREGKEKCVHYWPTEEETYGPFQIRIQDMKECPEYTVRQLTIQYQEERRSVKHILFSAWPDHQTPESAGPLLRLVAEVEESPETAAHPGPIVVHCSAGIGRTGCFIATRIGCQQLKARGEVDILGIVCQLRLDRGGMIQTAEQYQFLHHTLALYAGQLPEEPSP

[4] = cytotoxicity toward DRD oncogenic fibroblasts, dose response, cell-based, non-viral oncogenic, luminescence (AID 1934); format: functional; settings: Homo sapiens
[5] = test system: BJ; assay: cytotoxicity toward BJ-TERT fibroblasts, dose response, cell-based, RAS-independent, luminescence (AID 1933); format: functional; settings: Homo sapiens
[6] = molecular target: Cytochrome P450 2D6 (Homo sapiens, UniProt P10635);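 note: CYP2D6 member of a cytochrome P450 panel assay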
[7] = test system: BJ; assay: cells; format: functional, cell-based; settings: Homo sapiens
[8] = test system: Vero; assay: Vero cell cytotoxicity, cytotoxicity control for flavivirus capping enzyme inhibitors (AID 588742); format: functional; settings: Chlorocebus sabaeus
[9] = AlphaScreen signal interference compounds, dose response, artefact control for ARNT-TACC3 interaction inhibitor project, biochemical, luminescence, cherry-pick (AID 651705); format: functional;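 note: AlphaScreen bead proximity signal that flags compounds interfering with the detection technology; potency reflects signal decrease which marks the compound as an assay artifact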
[10] = molecular target: T2, Hexokinase HKDC1 (Homo sapiens, UniProt Q2TB90); assay: SAR analysis of small molecule inhibitors of hexokinase domain containing I (HKDC1). [Related pubchem assays (depositor defined):AID493160, AID493190]; format: functional
T2 sequence (Q2TB90 whole entry): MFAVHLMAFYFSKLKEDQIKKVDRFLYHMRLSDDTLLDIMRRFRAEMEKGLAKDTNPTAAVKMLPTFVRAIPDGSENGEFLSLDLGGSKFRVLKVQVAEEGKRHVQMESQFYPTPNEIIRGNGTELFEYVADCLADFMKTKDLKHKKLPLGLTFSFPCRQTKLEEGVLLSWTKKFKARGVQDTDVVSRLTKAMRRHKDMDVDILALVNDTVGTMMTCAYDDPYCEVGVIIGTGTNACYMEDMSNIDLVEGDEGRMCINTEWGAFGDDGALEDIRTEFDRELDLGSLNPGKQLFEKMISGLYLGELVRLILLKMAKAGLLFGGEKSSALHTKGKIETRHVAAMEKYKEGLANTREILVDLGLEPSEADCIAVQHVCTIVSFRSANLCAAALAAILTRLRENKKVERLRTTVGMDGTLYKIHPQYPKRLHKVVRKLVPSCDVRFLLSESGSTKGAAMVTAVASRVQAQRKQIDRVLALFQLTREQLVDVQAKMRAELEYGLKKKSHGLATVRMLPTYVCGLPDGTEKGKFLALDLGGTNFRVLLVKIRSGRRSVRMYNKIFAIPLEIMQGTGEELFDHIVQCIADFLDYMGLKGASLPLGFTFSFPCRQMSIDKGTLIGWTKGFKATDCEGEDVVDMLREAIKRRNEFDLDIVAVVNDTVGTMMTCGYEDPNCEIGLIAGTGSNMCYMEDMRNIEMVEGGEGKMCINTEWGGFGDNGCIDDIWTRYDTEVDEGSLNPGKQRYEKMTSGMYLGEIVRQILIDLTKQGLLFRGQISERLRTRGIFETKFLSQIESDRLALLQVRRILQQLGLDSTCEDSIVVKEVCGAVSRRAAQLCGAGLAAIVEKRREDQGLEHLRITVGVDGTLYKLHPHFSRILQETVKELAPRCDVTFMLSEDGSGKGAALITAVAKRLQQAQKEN

[11] = molecular target: 1-phosphatidylinositol 4,5-bisphosphate phosphodiesterase gamma-1 (Homo sapiens, UniProt P19174); assay: Counterscreen for inhibitors of phospholipase C isozymes (PLC-B3): Fluorescence-based biochemical high throughput dose response assay to identify inhibitors of phospholipase C isozymes (PLC-gamma1).
[12] = enhancers of respiration in Yfh1-depleted yeast, dose response, Friedreich's ataxia, plus single-dose screen (AID 1465); format: functional;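 note: yeast depleted of Yfh1p frataxin homolog grown on glycerol needing respiration; WST-1 tetrazolium dye reduction as measure of cellular dehydrogenase metabolic activity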
[13] = molecular target: Heat shock protein HSP 90-alpha (Homo sapiens, UniProt P07900); assay: Luminescence-based dose response biochemical high throughput screening assay for inhibitors of the Heat Shock Protein 90 (HSP90). [Related pubchem assays: 1831 (Summary AID.), 1846 (Confirmation screen.), 1789 (Primary screen.)]
[14] = molecular target: Sphingosine 1-phosphate receptor 1 (Homo sapiens, UniProt P21453); format: functional;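 note: Tango beta-arrestin reporter U2OS cells stimulated with S1P near its EC80; inhibitor potency meaning antagonism of receptor activation by the natural agonist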
[15] = molecular target: T3, Alkaline phosphatase, tissue-nonspecific isozyme (Homo sapiens, UniProt P05186); assay: TNAP enzyme activators, dose response, selectivity assay for mouse IAP activator project, biochemical, TNAP isozyme, mouse IAP uHTS hits (AID 488880); format: functional
T3 sequence (P05186 whole entry): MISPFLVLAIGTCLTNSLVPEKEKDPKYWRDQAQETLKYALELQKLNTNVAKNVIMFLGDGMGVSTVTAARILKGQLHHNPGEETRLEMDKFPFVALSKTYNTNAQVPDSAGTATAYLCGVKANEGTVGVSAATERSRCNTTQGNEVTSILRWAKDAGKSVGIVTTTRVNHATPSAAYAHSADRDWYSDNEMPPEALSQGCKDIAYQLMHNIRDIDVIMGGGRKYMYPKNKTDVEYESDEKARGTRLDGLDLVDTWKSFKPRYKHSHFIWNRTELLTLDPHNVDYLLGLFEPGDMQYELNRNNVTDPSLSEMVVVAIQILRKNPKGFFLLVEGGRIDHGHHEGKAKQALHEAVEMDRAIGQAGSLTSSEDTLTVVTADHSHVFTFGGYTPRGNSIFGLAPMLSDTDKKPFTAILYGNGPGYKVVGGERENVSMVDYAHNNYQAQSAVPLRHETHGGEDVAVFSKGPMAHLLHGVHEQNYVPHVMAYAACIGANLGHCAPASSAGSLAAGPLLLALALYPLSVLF

[16] = molecular target: Induced myeloid leukemia cell differentiation protein Mcl-1 (Homo sapiens, UniProt Q07820); format: functional
Chain of Induced myeloid leukemia cell differentiation protein Mcl-1 (Q07820 whole entry): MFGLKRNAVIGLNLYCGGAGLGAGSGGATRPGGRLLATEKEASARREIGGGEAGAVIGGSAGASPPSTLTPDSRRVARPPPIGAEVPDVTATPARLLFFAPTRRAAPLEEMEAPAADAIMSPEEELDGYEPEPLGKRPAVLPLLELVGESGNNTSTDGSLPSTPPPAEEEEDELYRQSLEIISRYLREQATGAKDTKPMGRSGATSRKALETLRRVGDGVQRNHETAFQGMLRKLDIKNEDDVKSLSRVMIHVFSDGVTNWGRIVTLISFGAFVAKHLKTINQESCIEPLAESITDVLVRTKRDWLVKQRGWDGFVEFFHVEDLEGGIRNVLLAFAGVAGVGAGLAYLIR

Chain of Cytochrome P450 2D6 (P10635 whole entry): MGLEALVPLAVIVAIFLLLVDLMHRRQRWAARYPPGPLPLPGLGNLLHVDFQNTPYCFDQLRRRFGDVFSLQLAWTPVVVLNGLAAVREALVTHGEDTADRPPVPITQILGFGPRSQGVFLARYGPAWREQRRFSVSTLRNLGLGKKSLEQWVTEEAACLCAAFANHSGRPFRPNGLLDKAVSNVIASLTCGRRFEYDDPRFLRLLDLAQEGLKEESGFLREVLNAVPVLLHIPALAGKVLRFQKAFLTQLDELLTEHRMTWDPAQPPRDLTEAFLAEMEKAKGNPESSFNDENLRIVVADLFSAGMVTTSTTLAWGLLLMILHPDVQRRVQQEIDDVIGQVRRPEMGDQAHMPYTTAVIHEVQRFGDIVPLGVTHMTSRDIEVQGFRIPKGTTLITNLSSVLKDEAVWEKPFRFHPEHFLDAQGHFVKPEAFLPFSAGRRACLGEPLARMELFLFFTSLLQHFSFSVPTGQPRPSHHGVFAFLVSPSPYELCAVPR
Chain of 1-phosphatidylinositol 4,5-bisphosphate phosphodiesterase gamma-1 (P19174 whole entry): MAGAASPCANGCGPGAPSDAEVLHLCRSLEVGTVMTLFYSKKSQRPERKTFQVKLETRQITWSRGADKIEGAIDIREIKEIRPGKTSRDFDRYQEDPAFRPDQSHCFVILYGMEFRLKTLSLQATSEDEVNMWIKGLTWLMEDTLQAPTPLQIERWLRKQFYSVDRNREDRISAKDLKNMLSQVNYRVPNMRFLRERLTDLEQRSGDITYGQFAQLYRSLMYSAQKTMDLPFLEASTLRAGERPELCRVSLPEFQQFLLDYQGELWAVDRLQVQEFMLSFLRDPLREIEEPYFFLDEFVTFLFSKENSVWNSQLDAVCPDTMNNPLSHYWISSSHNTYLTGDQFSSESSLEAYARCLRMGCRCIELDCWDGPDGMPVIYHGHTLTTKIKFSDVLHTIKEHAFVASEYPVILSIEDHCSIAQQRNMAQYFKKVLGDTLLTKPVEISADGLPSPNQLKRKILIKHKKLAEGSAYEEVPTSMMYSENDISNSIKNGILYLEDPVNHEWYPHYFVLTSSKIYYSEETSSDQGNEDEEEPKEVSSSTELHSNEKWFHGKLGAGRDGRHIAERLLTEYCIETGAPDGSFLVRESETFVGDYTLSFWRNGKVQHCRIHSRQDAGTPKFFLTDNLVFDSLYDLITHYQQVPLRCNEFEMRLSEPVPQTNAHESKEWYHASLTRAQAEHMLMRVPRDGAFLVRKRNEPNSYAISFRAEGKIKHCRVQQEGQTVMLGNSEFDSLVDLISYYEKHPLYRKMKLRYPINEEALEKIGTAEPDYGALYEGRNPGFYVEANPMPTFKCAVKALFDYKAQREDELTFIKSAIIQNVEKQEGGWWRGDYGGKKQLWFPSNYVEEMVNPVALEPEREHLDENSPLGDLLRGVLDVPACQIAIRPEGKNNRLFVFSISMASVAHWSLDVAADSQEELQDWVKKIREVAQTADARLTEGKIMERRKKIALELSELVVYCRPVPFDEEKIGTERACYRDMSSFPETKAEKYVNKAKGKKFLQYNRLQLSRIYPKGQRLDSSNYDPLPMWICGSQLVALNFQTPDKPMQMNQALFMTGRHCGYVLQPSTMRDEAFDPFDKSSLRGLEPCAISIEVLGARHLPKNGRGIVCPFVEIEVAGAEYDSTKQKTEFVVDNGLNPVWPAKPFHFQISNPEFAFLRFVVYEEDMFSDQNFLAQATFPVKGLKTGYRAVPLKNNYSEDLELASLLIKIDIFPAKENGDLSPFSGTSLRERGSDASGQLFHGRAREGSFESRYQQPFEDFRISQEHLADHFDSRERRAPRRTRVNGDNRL
Chain of Sphingosine 1-phosphate receptor 1 (P21453 whole entry): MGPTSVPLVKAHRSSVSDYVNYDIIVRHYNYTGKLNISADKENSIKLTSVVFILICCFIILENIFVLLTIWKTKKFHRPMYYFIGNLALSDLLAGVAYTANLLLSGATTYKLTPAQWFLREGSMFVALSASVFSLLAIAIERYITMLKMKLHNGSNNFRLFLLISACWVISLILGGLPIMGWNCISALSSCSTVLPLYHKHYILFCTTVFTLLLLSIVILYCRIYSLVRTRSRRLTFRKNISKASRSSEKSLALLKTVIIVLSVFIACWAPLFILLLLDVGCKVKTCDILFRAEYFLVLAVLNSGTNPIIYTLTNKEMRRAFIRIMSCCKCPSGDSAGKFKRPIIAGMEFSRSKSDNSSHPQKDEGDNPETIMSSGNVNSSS
Chain of Dual specificity protein phosphatase 3 (P51452 whole entry): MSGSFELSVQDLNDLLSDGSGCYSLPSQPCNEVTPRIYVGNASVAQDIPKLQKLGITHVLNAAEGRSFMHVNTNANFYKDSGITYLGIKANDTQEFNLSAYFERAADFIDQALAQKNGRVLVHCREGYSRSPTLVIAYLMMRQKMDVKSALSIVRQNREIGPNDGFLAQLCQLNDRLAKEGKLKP

## CCc1nnc(NS(=O)(=O)c2ccc(NC(=S)NC(=O)/C=C/c3ccc(C(C)C)cc3)cc2)s1
[1]
  CC50: 17.2 µM (active)
[2]
  IC50: 15 µM (active)
[3]
  IC50: 5.99 µM (active)

## O=C(/C=C/c1ccco1)Nc1ccc(Oc2ccccc2)cc1
[4]
  EC50: 18.1 µM (active)
[5]
  EC50: > 150 µM (not active)
[6]
  AC50: 4.47 µM (inconclusive)
[7]
  EC50: 21.2 µM (active)

## COc1ccc(S(=O)(=O)Nc2cc(SCC(=O)O)c(O)c3ccccc23)cc1
[8]
  CC50: 20.6 µM (active)
[9]
  AC50: 104 µM (active)
[10]
  IC50: 10.5 µM (active)

## O=C1C(Nc2ccc(O)cc2)=C/C(=N/S(=O)(=O)c2cccs2)c2ccccc21
[11]
  IC50: 29.3 µM (inactive)
[12]
  EC50: > 100 µM (active)
[13]
  IC50: 0.656 µM (active)
[14]
  IC50: 4.23 µM (active)

## CC1CC(=O)c2c(cc3c(-c4c(O)cc(O)c5c(O)c6c(cc45)OC(C)CC6=O)c(O)cc(O)c3c2O)O1 (stereo unspecified) [CEPHALOCHROMIN]
[15]
  EC50: 26.7 µM (active)
[16]
  IC50: 1.49 µM (active)
